Our source for the IC50 values is US7572799B2, “Pyrazolo[4,3-d]pyrimidines as Phosphodiesterase Inhibitors” (Pfizer Inc, priority 2003, dated 2009).

In general, IC50 refers to the concentration at which inhibition is half-maximal.

The assay deals with PDE-5 (UniProt O76074). Description: In vitro PDE inhibitory activity against PDE5 (batch method or scintillation proximity assay). In kind it is biochemical, human. The settings on record: representative compounds. The source says:
The compounds of the invention are inhibitors of cyclic guanylate monophosphate (cGMP)-specific phosphodiesterase type 5 (PDE-5 inhibitors).
The required PDE enzymes can be isolated from a variety of sources, including human corpus cavernosum, human and rabbit platelets, human cardiac ventricle, human skeletal muscle and bovine retina, essentially by a modification of the method of Thompson, W J et al.; Biochemistry 18(23), 5228-5237, 1979, as described by Ballard S A et al.; J. Urology 159(6), 2164-2171, 1998. In particular, cGMP-specific PDE5 and cGMP-inhibited cAMP PDE3 can be obtained from human corpus cavernosum tissue, human platelets or rabbit platelets; cGMP-stimulated PDE2 was obtained from human corpus cavernosum; calcium/calmodulin (Ca/CAM)-dependent PDE1 from human cardiac ventricle; cAMP-specific PDE4 from human skeletal muscle; and photoreceptor PDE6 from bovine retina. Phosphodiesterases 7-11 can be generated from full length human recombinant clones transfected into SF9 cells.
Assays can be performed either using a modification of the “batch”method of Thompson W J and Appleman M M; Biochemistry 10(2), 311-316, 1971, essentially as described by Ballard S A et al.; J. Urology 159(6), 2164-2171, 1998, or using a scintillation proximity assay for the direct detection of [^3H]-labelled AMP/GMP using a modification of the protocol described by Amersham plc under product code TRKQ7090/7100. In summary, for the scintillation proximity assay the effect of PDE inhibitors was investigated by assaying a fixed amount of enzyme in the presence of varying inhibitor concentrations and low substrate, (cGMP or cAMP in a 3:1 ratio unlabelled to [^3H]-labeled at a concentration of ˜⅓ Km, or less) such that IC50≅Ki. The final assay volume was made up to 100 μl with assay buffer [20 mM Tris-HCl pH 7.4, 5 mM MgCl2, 1 mg/ml bovine serum albumin]. Reactions were initiated with enzyme, incubated for 30-60 min at 30° C. to give <30% substrate turnover and terminated with 50 μl yttrium silicate SPA beads (containing 3 mM of the respective unlabelled cyclic nucleotide for PDEs 9 and 11).

Read-outs that look alike come from different tables or passages of the source.

As for `Cc1ccnc(Nc2nc(N(C)C)nc3c(C(=O)O)nn(CC4CCCCO4)c23)c1` (stereo not drawn) [Example 59], the IC50 turned out to be 43.6 nM.
For the compound `CCNc1nc(Nc2cc(C)ccn2)c2c(n1)c(C(=O)O)nn2CCOC(C)C` [Example 63], for the setting “read-out: IC50”, the IC50 is 4.58 nM.
Consider `CCOCCn1nc(C(=O)OC)c2nc(N(C)C(C)C)nc(Nc3cc(C)ccn3)c21` [Example 1, Methyl 1-(2-ethoxyethyl)-5-(N-isopropyl-N-methylamino)-7-(4-methylpyridin-2-ylamino)-1H-pyrazolo[4,3-d]pyrimidine-3-carboxylate], for which the IC50 (read-out: IC50) was 0.075 nM.
Still for that read-out and setting: for `CO[C@H](C)Cn1nc(C(=O)O)c2nc(N(C)C)nc(Nc3cc(C)ccn3)c21` [Example 64] the value was 100 nM.
In the case of `CO[C@H](C)Cn1nc(C(=O)O)c2nc(N(C)C(C)C)nc(Nc3cc(C)ccn3)c21` [Example 112, (2′R)-5-(N-Isopropyl-N-methylamino)-1-(2′-methoxypropyl)-7-(4-methylpyridin-2-ylamino)-1H-pyrazolo[4,3-d]pyrimidine-3-carboxylic acid], for the setting “read-out: IC50”, the IC50 was found to be 14.7 nM.
Take `CCOCCn1nc(C(=O)O)c2nc(N(C)C(C)C)nc(Nc3ccncn3)c21` [Example 28]: the IC50 (read-out: IC50) was 11.6 nM.
Same read-out and setting: then `CCOCCn1nc(-c2nc(=O)o[nH]2)c2nc(N(C)CC)nc(Nc3ccc(F)c(C)c3)c21` [Example 77], with 0.162 nM; and `CCOCCn1nc(C(=O)O)c2nc(N[C@@H](C)CC)nc(Nc3cc(C)ccn3)c21` [Example 55], with 2.6 nM.
Consider `Cc1ccnc(Nc2nc(N(C)C3CCC3)nc3c(C(=O)O)nn(CCOCC(F)(F)F)c23)c1` [Example 130, 5-[Cyclobutyl(methyl)amino]-7-[(4-methylpyridin-2-yl)amino]-1-[2-(2,2,2-trifluoroethoxy)ethyl]-1H-pyrazolo[4,3-d]pyrimidine-3-carboxylic acid], for which, for the setting “read-out: IC50”, the IC50 is 19.5 nM.
The same measure, in the same setting: then `CCOCCn1nc(C(=O)O)c2nc(N3CCCC3C)nc(Nc3cc(C)ccn3)c21` (stereo not drawn) [Example 53], with 0.797 nM; and `CCOCCn1nc(C(=O)O)c2nc(N(C)CC)nc(Nc3ccnc(C)n3)c21` [Example 73], with 52.3 nM; and `Cc1ccnc(Nc2nc(N(C)C(C)C)nc3c(C(=O)O)nn(CCOC(C)C)c23)c1` [Example 111, 1-(2-Isopropoxyethyl)-5-(N-isopropyl-N-methylamino)-7-(4-methylpyridin-2-ylamino)-1H-pyrazolo[4,3-d]pyrimidine-3-carboxylic acid], with 0.502 nM.
On the same count and under the same terms, for `CCCOCCn1nc(C(=O)NS(C)(=O)=O)c2nc(N(C)CC)nc(Nc3cc(C)ccn3)c21` [Example 171] the value was 1.21 nM.
The same measure, in the same setting: for `CCCN(CC1CC1)c1nc(Nc2cc(C)ccn2)c2c(n1)c(C(=O)O)nn2CCOCC` [Example 49] the value was 4.92 nM; for `CCOCCn1nc(C(=O)OCC)c2nc(N(C)C(C)C)nc(Nc3cc(C)ccn3)c21` [Example 9], 0.075 nM.
Compound `CCOCCn1nc(C(=O)O)c2nc(N(C)C(C)C)nc(NC3CC3)c21` [Example 34] showed an IC50 of 100 nM.
As to `CCOCCn1nc(C(=O)O)c2nc(N(CC)CC)nc(Nc3ccc(F)c(C)c3)c21` [Example 86], for the setting “read-out: IC50”, the IC50 amounted to 0.063 nM.
`CCOCCn1nc(C(=O)O)c2nc(N(C)C(C)C)nc(N[C@@H]3CCOC3)c21` [Example 67]: the IC50 stood at 100 nM.
Regarding `CCOCCn1nc(C(=O)O)c2nc(N3CC[C@@H](OC)C3)nc(Nc3cc(C)ccn3)c21` [Example 13], under “read-out: IC50”, the IC50 was determined as 1.46 nM.
On the same count and under the same terms, for `Cc1ccnc(Nc2nc(N(C)C(C)C)nc3c(C(=O)O)nn(CCOCC(F)(F)F)c23)c1` [Example 126, 5-[Isopropyl(methyl)amino]-7-[(4-methylpyridin-2-yl)amino]-1-[2-(2,2,2-trifluoroethoxy)ethyl]-1H-pyrazolo[4,3-d]pyrimidine-3-carboxylic acid] the value was 3.05 nM; for `CCOCCn1nc(C(=O)O)c2nc(N(C)C(C)C)nc(Nc3ccccc3F)c21` [Example 104], 9.69 nM; for `CCOCCn1nc(C(=O)OC)c2nc(N(C)CC)nc(Nc3ccc(F)c(C)c3)c21` [Example 116, Methyl 1-(2-ethoxyethyl)-5-[ethyl(methyl)amino]-7-[(4-fluoro-3-methylphenyl)amino]-1H-pyrazolo[4,3-d]pyrimidine-3-carboxylate], 0.032 nM.
`Cc1ccnc(Nc2nc(N(C)C(C)C)nc3c(C(=O)NS(C)(=O)=O)nn(CCOCC(F)(F)F)c23)c1` [Example 179, 5-[Isopropyl(methyl)amino]-7-[(4-methylpyridin-2-yl)amino]-N-(methylsulfonyl)-1-[2-(2,2,2-trifluoroethoxy)ethyl]-1H-pyrazolo[4,3-d]pyrimidine-3-carboxamide]: under “read-out: IC50”, the IC50 worked out at 0.914 nM.
Consider `CCOCCn1nc(C(=O)O)c2nc(N(C)C)nc(NC3CC3)c21` [Example 35], for which 100 nM corresponded to half-maximal inhibition (IC50).
On to `CCN(C)c1nc(Nc2cc(C)ccn2)c2c(n1)c(C(=O)O)nn2CCOC(C)C` [Example 62], for which the IC50 (read-out: IC50) came out at 1.85 nM.
With `Cc1ccnc(Nc2nc(N(C)C)nc3c(C(=O)O)nn(CCOC(C)C)c23)c1` [Example 61], under “read-out: IC50”, the IC50 worked out at 13.1 nM.
`CCOCCn1nc(C(=O)O)c2nc(N(C)C)nc(NC3CCOCC3)c21` [Example 82]: the IC50 (read-out: IC50) was found to be 55.1 nM.
On to `CCOCCn1nc(C(=O)O)c2nc(N(C)C(C)C)nc(Nc3cccc(OC)n3)c21` [Example 84], for which the IC50 (read-out: IC50) amounted to 2.37 nM.
For `CCOCCn1nc(C(=O)O)c2nc(N(C)C(C)C)nc(Nc3cc(F)cc(F)c3)c21` [Example 91], the IC50 (read-out: IC50) came to 5.06 nM.
`CCN(C)c1nc(Nc2cc(C)ccn2)c2c(n1)c(C(=O)NS(C)(=O)=O)nn2CCO` [Example 185, 5-[Ethyl(methyl)amino]-1-(2-hydroxyethyl)-7-[(4-methylpyridin-2-yl)amino]-N-(methylsulfonyl)-1H-pyrazolo[4,3-d]pyrimidine-3-carboxamide]: the IC50 (read-out: IC50) came out at 11.5 nM.
The same measure, in the same setting: for `CCOCCn1nc(C(=O)O)c2nc(N(C)C(C)C)nc(Nc3cc(CC)ccn3)c21` [Example 36] the value was 0.708 nM.
For `CCOCCn1nc(C(=O)O)c2nc(N(C)C(C)C)nc(Nc3ccccc3)c21` [Example 95], where the note is “read-out: IC50”, the IC50 was 9.11 nM.
The same measure, in the same setting: for `COCCn1nc(C(=O)O)c2nc(N(C)C(C)C)nc(Nc3cc(C)ccn3)c21` [Example 22] the value was 7.12 nM; for `CCOCCn1nc(C(=O)O)c2nc(N(C)CCOC)nc(Nc3cc(C)ccn3)c21` [Example 17], 2.93 nM; for `CCOCCn1nc(C(=O)OCCN(C)C)c2nc(N(C)C)nc(Nc3cc(C)ccn3)c21` [Example 10, 2-(Dimethylamino)ethyl 5-dimethylamino-1-(2-ethoxyethyl)-7-(4-methylpyridin-2-ylamino)-1H-pyrazolo[4,3-d]pyrimidine-3-carboxylate], 1.86 nM.
Still for that read-out and setting: for `CCOCCn1nc(C(=O)O)c2nc(N(C)CC)nc(Nc3cc(C)ccn3)c21` [Example 96] the value was 3.65 nM.
On the same count and under the same terms, for `CCN(CC)c1nc(Nc2cc(C)ccn2)c2c(n1)c(C(=O)NS(C)(=O)=O)nn2CCOCC(F)F` [Example 182] the value was 1.4 nM; for `CCOCCn1nc(C(=O)O)c2nc(N(C)C)nc(Nc3cc(C)cc(C)n3)c21` [Example 27], 36.8 nM.
`CCN(C)c1nc(Nc2cc(C)ccn2)c2c(n1)c(C(=O)O)nn2CC1CCOCC1` [Example 58] showed an IC50 of 100 nM.
On to `CCOCCn1nc(C(=O)O)c2nc(N(C)C)nc(Nc3ccc(C)c(C)c3)c21` [Example 102], for which, under “read-out: IC50”, the IC50 was 38.2 nM.
Same read-out and setting: for `CCN(C)c1nc(Nc2cc(C)ccn2)c2c(n1)c(C(=O)O)nn2C[C@@H](C)OC` [Example 65] the value was 25 nM; for `CCOCCn1nc(C(=O)O)c2nc(N(C)CC)nc(Nc3ccc(C)c(C)c3)c21` [Example 103], 21.4 nM.
Same read-out and setting: for `CCOCCn1nc(C(=O)O)c2nc(N[C@H](C)CC)nc(Nc3cc(C)ccn3)c21` [Example 56] the value was 9.11 nM.
Still for that read-out and setting: then `CCOCCn1nc(C(=O)O)c2nc(N(C)C(C)C)nc(Nc3cccc(C)n3)c21` [Example 99], with 2.45 nM; and `CCOCCn1nc(C(=O)OCC)c2nc(N3CCN[C@H](C)C3)nc(Nc3cc(C)ccn3)c21` [Example 8], with 3.82 nM; and `CCOCCn1nc(C(=O)O)c2nc(N(C)C)nc(Nc3cc(C)ccc3F)c21` [Example 100], with 3.48 nM.
Regarding `CCN(C)c1nc(Nc2cc(C)ccn2)c2c(n1)c(C(=O)O)nn2CC1CCCCO1` (stereo not drawn) [Example 60], the IC50 was 8.02 nM.
Consider `CCOCCn1nc(C(=O)NS(C)(=O)=O)c2nc(N(C)C)nc(Nc3cc(C)ccn3)c21` [Example 114, N-[5-(Dimethylamino)-1-(2-ethoxyethyl)-7-(4-methylpyridin-2-ylamino)-1H-pyrazolo[4,3-d]pyrimidine-3-carbonyl]methanesulfonamide], for which, for the setting “read-out: IC50”, the IC50 worked out at 4.83 nM.
